ChEMBL document CHEMBL1127243, “8-chlorodibenz[b,f][1,4]oxazepine-10(11H)-carboxylic acid,2-[3-[2-(furanylmethyl)thio]-1-oxopropyl]hydrazide (SC-51322): A potent PGE2 antagonist and analgesic” (Bioorg Med Chem Lett, 1994)

Columns and labels:
[1] = system: Mus musculus; assay: Compound was tested for analgesic activity in the mouse writhing assay at intragastric dose of 30 mg/Kg; type: functional; conditions: po
[2] = Compound was tested for antagonism of Prostaglandin E2 receptor activity in guinea pig ileum assay based on the dose ratio at 3 uM; conditions: read-out: pA2 (converted)

| Structure (SMILES) | ED50 [1] | Kb [2] |
| --- | --- | --- |
| O=C(CCS(=O)(=O)Cc1ccco1)NNC(=O)N1Cc2ccccc2Oc2ccc(Cl)cc21 | 5 mg/kg | 251 nM |
| O=C(CCSCc1ccco1)NNC(=O)N1Cc2ccccc2Oc2ccc(Cl)cc21 | 0.9 mg/kg |  |
| O=C(CC[S+]([O-])Cc1ccco1)NNC(=O)N1Cc2ccccc2Oc2ccc(Cl)cc21 (configuration not stated) | 5 mg/kg | 631 nM |
| O=C(CCCCCl)NNC(=O)N1Cc2ccccc2Oc2ccc(Cl)cc21 [PINADOLINE] | 9.8 mg/kg | 631 nM |
